Earlier results, collected in patent publication US20100112102A1, “THERAPEUTIC COMPOSITIONS FOR THE TREATMENT OF BENIGH PROSTATE HYPERPLASIA, PROSTATITIS, IMPOTENCE, INFERTILITY AND PROSTATE CANCER AND A METHOD FOR THE USE THEREOF” (priority 2007, published 2010).

System: 5α-reductase
Conditions: one group of patients

CC(C)(C)NC(=O)[C@H]1CC[C@H]2[C@@H]3CC[C@H]4NC(=O)C=C[C@]4(C)[C@H]3CC[C@]12C [Finasteride]
J-PSS parameters, decrease on average: 20%
maximal rate of urination, increase: 32.5%
prostate size, decrease on average: 32%
